{"source": "patent US20220324911A1", "about": "“THERAPEUTIC PEPTIDES” (COHBAR, INC., priority 2019, published 2022)", "key": {"[1]": {"test_system": "3T3-L1 adipocytes", "assay": "Free Fatty Acid Levels in 3T3-L1 Adipocytes", "type": "cell-based, mouse", "conditions": "for Free Fatty Acid Levels Expressed as a Percent Isoproterenol Control, Percent of Control Value: peptides at 25 μM, 20-22 hours then isoproterenol (1 nM) 3 hours", "procedure": "Following 12-15 days' differentiation, test peptides were added to a final concentration of 25 μM and incubated for 20-22 hours in Adipocyte Maintenance Medium. After 20-22 hours, isoproterenol (1 nM) was added to all wells except untreated controls and test peptides were replenished. Cells were incubated for a further 3 hours in Assay Buffer (Zen-Bio). Free fatty acid concentrations in the media were determined using a Free Fatty Acid Assay Kit (Zen-Bio) according to the manufacturer's instructions using a plate reader (540 nm). Absorbance values were corrected for untreated background and expressed relative to isoproterenol treated cells. Treatment with isoproterenol (1 nM) alone was used as the free fatty acid level stimulatory control. The relative standard deviation of the isoproterenol control was <10%. […] Free fatty acid levels for insulin (100 nM) treatment were <5% of the isoproterenol control value."}, "[2]": {"test_system": "MDA-MB-231 cells", "assay": "Caspase 3/7 Activity in MDA-MB-231 Cells (Caspase-Glo 3/7)", "type": "cell-based, human", "conditions": "peptides at 10 μM, 18 hours, relative to DMSO control", "procedure": "The effect of the peptides on cell death/survival can be assessed using a caspase-3 assay. Peptides were dissolved with DMSO at 10 mM stock. […] Staurosporine (Selleckchem) was dissolved with DMSO at 1 mM stock. Caspase-Glo 3/7 Assay Reagent was purchased from Promega (Madison, Wis.). MDA-MB-231 human breast cancer cell line was purchased from American Type Culture Collection (Manassas, Va.). MDA-MB-231 cells were grown in DMEM Medium supplemented with 10% FBS. 100 μg/ml penicillin and 100 μg/ml streptomycin were added to the culture medium. Cultures were maintained at 37° C. in a humidified atmosphere of 5% C02 and 95% air. MDA-MB-231 cells were incubated with test peptides in duplicate at 10 μM at 37° C. in a humidified atmosphere of 5% C02 and 95% air for 18 hours. 25 μl of Caspase-Glo 3/7 Assay Reagent was added to each well and incubated at 37° C., 5% C02 for 1 hour. Luminescence for each sample well on the plate was measured by Envision 2104 Multilabel Reader (PerkinElmer, Santa Clara, Calif.). Activity was calculated relative to DMSO control."}, "[3]": {"test_system": "MCF-7 cells", "conditions": "human, 72 h, 10 µM", "procedure": "Peptides and reference compound staurosporine (Selleckchem) were dissolved with DMSO at 10 mM stock. CellTiter 96® AQueous One Solution Reagent (MTS assay reagent) was purchased from Promega (Madison, Wis.). MCF-7 human breast cancer cell line was purchased from American Type Culture Collection (Manassas, Va.). MCF-7 cells were grown in EMEM Medium supplemented with 10% FBS and 0.01 mg/ml human recombinant insulin. 100 μg/ml penicillin and 100 μg/ml streptomycin were added to the culture medium. Cells were incubated with test peptides at 10 μM at 37° C. in a humidified atmosphere of 5% C02 and 95% air for 72 hours. 5 μl of CellTiter 96® AQueous One Solution Reagent (MTS assay reagent) was added to each well and incubated at 37° C., 5% C02 for 5 hours. Absorbance at 492 nm was recorded by Envision 2104 Multilabel Reader. Treatment with DMSO alone was used as the cell viability activity control."}, "[4]": {"test_system": "MDA-MB-231 cells", "assay": "MTS Assay in MDA-MB-231 Cells (cell viability)", "type": "cell-based", "conditions": "human, 72 h", "procedure": "Test compounds and reference compound staurosporine (Selleckchem) were all dissolved with DMSO at 10 mM stock. […] Activity was calculated relative to DMSO control. […] Cell viability was 3% of the DMSO control value for Staurosporine (10 uM)."}}, "note": "Non-standard residues stand in square brackets, D forms with d. No end group written: not given here.", "data": [{"substance": "3 (SLLIQCQSGHLR) [compound 3]", "values": [{"measurement": "Free Fatty Acid Levels Expressed as a Percent Isoproterenol Control, Percent of Control Value", "setting": "[1]", "result": 136, "unit": "%"}]}, {"substance": "4 (LLIQCQSGHLR) [compound 4]", "values": [{"measurement": "Free Fatty Acid Levels Expressed as a Percent Isoproterenol Control, Percent of Control Value", "setting": "[1]", "result": 141, "unit": "%"}]}, {"substance": "5 ([dA]LIQCQSGHLR) [compound 5]", "values": [{"measurement": "Free Fatty Acid Levels Expressed as a Percent Isoproterenol Control, Percent of Control Value", "setting": "[1]", "result": 159, "unit": "%"}]}, {"substance": "8 (TCWLIVDIGLLIVSSVF) [compound 8]", "values": [{"measurement": "Free Fatty Acid Levels Expressed as a Percent Isoproterenol Control, Percent of Control Value", "setting": "[1]", "result": 129, "unit": "%"}]}, {"substance": "9 ([dA]TCWLIVDIGLLIVSSVF) [compound 9]", "values": [{"measurement": "Free Fatty Acid Levels Expressed as a Percent Isoproterenol Control, Percent of Control Value", "setting": "[1]", "result": 125, "unit": "%"}]}, {"substance": "10 ([dA]TCWLIVDIGLLIVSS[dA]F) [compound 10]", "values": [{"measurement": "Free Fatty Acid Levels Expressed as a Percent Isoproterenol Control, Percent of Control Value", "setting": "[1]", "result": 138, "unit": "%"}]}, {"substance": "13 (TGWARGLISTGRV) [compound 13]", "values": [{"measurement": "Free Fatty Acid Levels Expressed as a Percent Isoproterenol Control, Percent of Control Value", "setting": "[1]", "result": 87, "unit": "%"}]}, {"substance": "14 (TGWARGLISTGR; not fully specified) [compound 14]", "values": [{"measurement": "Free Fatty Acid Levels Expressed as a Percent Isoproterenol Control, Percent of Control Value", "setting": "[1]", "result": 102, "unit": "%"}]}, {"substance": "15 (TGW[dA]RGLISTGR) [compound 15]", "values": [{"measurement": "Free Fatty Acid Levels Expressed as a Percent Isoproterenol Control, Percent of Control Value", "setting": "[1]", "result": 102, "unit": "%"}]}, {"substance": "18 (QTVPNKPTGPKLPNLH) [compound 18]", "values": [{"measurement": "Free Fatty Acid Levels Expressed as a Percent Isoproterenol Control, Percent of Control Value", "setting": "[1]", "result": 109, "unit": "%"}]}, {"substance": "19 (QTVPNKPT[dA]PKLPNLH) [compound 19]", "values": [{"measurement": "Free Fatty Acid Levels Expressed as a Percent Isoproterenol Control, Percent of Control Value", "setting": "[1]", "result": 89, "unit": "%"}]}, {"substance": "20 (QTVPNKPT[dA]PKLPN[dA]) [compound 20]", "values": [{"measurement": "Free Fatty Acid Levels Expressed as a Percent Isoproterenol Control, Percent of Control Value", "setting": "[1]", "result": 108, "unit": "%"}]}, {"substance": "MQTVPNKPTGPKLPNLH [compound 17]", "values": [{"measurement": "Caspase 3/7 Activity, Percent of Control Activity", "setting": "[2]", "result": 65, "unit": "%"}, {"measurement": "MTS Assay cell viability, Percent of Control Activity", "setting": "[3]", "result": 68, "unit": "%"}, {"measurement": "Free Fatty Acid Levels Expressed as a Percent Isoproterenol Control, Percent of Control Value", "setting": "[1]", "result": 112, "unit": "%"}, {"measurement": "MTS Assay cell viability, Percent of Control Activity", "setting": "[4]", "result": 85, "unit": "%"}]}, {"substance": "MSLLIQCQSGHLR [compound 2]", "values": [{"measurement": "Caspase 3/7 Activity, Percent of Control Activity", "setting": "[2]", "result": 92, "unit": "%"}, {"measurement": "MTS Assay cell viability, Percent of Control Activity", "setting": "[3]", "result": 59, "unit": "%"}, {"measurement": "Free Fatty Acid Levels Expressed as a Percent Isoproterenol Control, Percent of Control Value", "setting": "[1]", "result": 162, "unit": "%"}, {"measurement": "MTS Assay cell viability, Percent of Control Activity", "setting": "[4]", "result": 90, "unit": "%"}]}, {"substance": "MTCWLIVDIGLLIVSSVF [compound 7]", "values": [{"measurement": "Caspase 3/7 Activity, Percent of Control Activity", "setting": "[2]", "result": 56, "unit": "%"}, {"measurement": "MTS Assay cell viability, Percent of Control Activity", "setting": "[3]", "result": 52, "unit": "%"}, {"measurement": "Free Fatty Acid Levels Expressed as a Percent Isoproterenol Control, Percent of Control Value", "setting": "[1]", "result": 160, "unit": "%"}, {"measurement": "MTS Assay cell viability, Percent of Control Activity", "setting": "[4]", "result": 88, "unit": "%"}]}, {"substance": "MTGWARGLISTGRV [compound 12]", "values": [{"measurement": "Caspase 3/7 Activity, Percent of Control Activity", "setting": "[2]", "result": 73, "unit": "%"}, {"measurement": "MTS Assay cell viability, Percent of Control Activity", "setting": "[3]", "result": 62, "unit": "%"}, {"measurement": "Free Fatty Acid Levels Expressed as a Percent Isoproterenol Control, Percent of Control Value", "setting": "[1]", "result": 107, "unit": "%"}, {"measurement": "MTS Assay cell viability, Percent of Control Activity", "setting": "[4]", "result": 89, "unit": "%"}]}, {"substance": "insulin [reference compound]", "values": [{"measurement": "Free fatty acid levels, % of the isoproterenol control value", "setting": "[1]; insulin 100 nM", "result": "< 5", "unit": "%"}]}]}
